The source made the active and inactive calls. The calls are words filed in the database; no cut-off is given here.
Assays:
MDA-MB-468 [1] = experiment: Induction of apoptosis in human MDA-MB-468 cells assessed as increase in cytochrome c expression measured after 48 hrs by Western blot analysis; type: functional, cell-based; conditions: dose 5-20 µM, DDE = dose-dependent effect
PANC-1 = experiment: Antiproliferative activity against human PANC cells assessed as cell growth inhibition measured after 48 hrs by MTT assay; type: functional, cell-based; conditions: PANC-1, 48 h
MDA-MB-468 [2] = experiment: Induction of apoptosis in human MDA-MB-468 cells assessed as increase in Bim expression measured after 48 hrs by Western blot analysis; type: functional, cell-based; conditions: dose 5-20 µM, DDE = dose-dependent effect
MDA-MB-231 [3] = experiment: Cell cycle arrest in human MDA-MB-231 cells assessed as increase in accumulation at S-phase at 5 to 20 uM measured after 48 hrs by propidium iodide staining based flow cytometry; type: functional; conditions: dose 5-20 µM
MDA-MB-468 [4] = experiment: Induction of apoptosis in human MDA-MB-468 cells assessed as reduction in Bcl-2 expression measured after 48 hrs by Western blot analysis; type: functional, cell-based; conditions: dose 5-20 µM, DDE = dose-dependent effect
MDA-MB-231 [5] = experiment: Inhibition of colony formation in human MDA-MB-231 cells at 5 to 20 umol/l pretreated for 48 hrs followed by replacement of fresh medium and measured after 15 days by crystal violet staining based assay; type: functional, cell-based; conditions: dose 5-20 µmol/L
HeLa = experiment: Inhibition of autophagic flux in human HeLa cells expressing mRFP-EGFP-LC3B assessed as blockage of autophagosome-lysosome fusion by measuring accumulation of yellow fluorescent vesicles; type: functional, cell-based
MDA-MB-468 [6] = experiment: Cell cycle arrest in human MDA-MB-468 cells assessed as increase in CHK2 phosphorylation at Thr 68 residue measured after 48 hrs by Western blot analysis; type: functional, cell-based; conditions: dose 5-20 µM, DDE = dose-dependent effect
MDA-MB-231 [7] = experiment: Induction of apoptosis in human MDA-MB-231 cells assessed as increase in Bim expression measured after 48 hrs by Western blot analysis; type: functional, cell-based; conditions: dose 5-20 µM, DDE = dose-dependent effect
MDA-MB-231 [8] = experiment: Antitumor activity against human MDA-MB-231 cells xenografted in NOD/SCID mouse assessed as reduction in tumor size at 5 to 15 mg/kg, ip administered at 3 days interval for 24 days and measured on day 25; type: functional, organism-based; conditions: dose 5-15 mg/kg, time 25.0 day
MDA-MB-231 [9] = experiment: Antiproliferative activity against human MDA-MB-231 cells assessed as reduction in cell count by microscopy; type: functional, cell-based
MDA-MB-468 [10] = experiment: Cell cycle arrest in human MDA-MB-468 cells assessed as reduction in CDK1 expression measured after 48 hrs by Western blot analysis; type: functional, cell-based; conditions: dose 5-20 µM, DDE = dose-dependent effect
MDA-MB-468 [11] = experiment: Induction of apoptosis in human MDA-MB-468 cells assessed as increase in late apoptotic cells measured after 48 hrs by Annexin V-FITC/propidium iodide staining based flow cytometry; type: functional, cell-based; conditions: dose 5-20 µM, DDE = dose-dependent effect
MDA-MB-231 [12] = experiment: Cell cycle arrest in human MDA-MB-231 cells assessed as increase in CHK2 phosphorylation at Thr 68 residue measured after 48 hrs by Western blot analysis; type: functional, cell-based; conditions: dose 5-20 µM, DDE = dose-dependent effect
MDA-MB-231 [13] = experiment: Cell cycle arrest in human MDA-MB-231 cells assessed as reduction in CDK2 expression measured after 48 hrs by Western blot analysis; type: functional, cell-based; conditions: dose 5-20 µM, DDE = dose-dependent effect
MDA-MB-468 [14] = experiment: Inhibition of autophagy in human MDA-MB-468 cells assessed as increase in p62 expression at 5 to 20 uM measured after 48 hrs by Western blot analysis; type: functional, cell-based; conditions: dose 5-20 µM, DDE = dose-dependent effect
MDA-MB-231 [15] = experiment: Antitumor activity against human MDA-MB-231 cells xenografted in NOD/SCID mouse assessed as reduction in Ki67 expression at 5 to 15 mg/kg, ip administered at 3 days interval for 24 days and measured on day 25 by immunohistochemical analysis; type: functional, organism-based; conditions: dose 5-15 mg/kg, time 25.0 day
MDA-MB-468 [16] = experiment: Antiproliferative activity against human MDA-MB-468 cells assessed as reduction in cell count by microscopy; type: functional, cell-based
U-251 = experiment: Antiproliferative activity against human U-251 cells assessed as cell growth inhibition measured after 48 hrs by MTT assay; type: functional, cell-based; conditions: U-251, 48 h
[17] = target: T1, Structural maintenance of chromosomes protein 1A (Homo sapiens) (UniProt Q14683); experiment: Activation of SMC1 phosphorylation in human MDA-MB-468 cells at 5 to 20 uM measured after 6 to 48 hrs by Western blot analysis; type: cell-based; conditions: filed as activator, dose 5-20 µM, time 6-48 hrs
T1 sequence (whole entry): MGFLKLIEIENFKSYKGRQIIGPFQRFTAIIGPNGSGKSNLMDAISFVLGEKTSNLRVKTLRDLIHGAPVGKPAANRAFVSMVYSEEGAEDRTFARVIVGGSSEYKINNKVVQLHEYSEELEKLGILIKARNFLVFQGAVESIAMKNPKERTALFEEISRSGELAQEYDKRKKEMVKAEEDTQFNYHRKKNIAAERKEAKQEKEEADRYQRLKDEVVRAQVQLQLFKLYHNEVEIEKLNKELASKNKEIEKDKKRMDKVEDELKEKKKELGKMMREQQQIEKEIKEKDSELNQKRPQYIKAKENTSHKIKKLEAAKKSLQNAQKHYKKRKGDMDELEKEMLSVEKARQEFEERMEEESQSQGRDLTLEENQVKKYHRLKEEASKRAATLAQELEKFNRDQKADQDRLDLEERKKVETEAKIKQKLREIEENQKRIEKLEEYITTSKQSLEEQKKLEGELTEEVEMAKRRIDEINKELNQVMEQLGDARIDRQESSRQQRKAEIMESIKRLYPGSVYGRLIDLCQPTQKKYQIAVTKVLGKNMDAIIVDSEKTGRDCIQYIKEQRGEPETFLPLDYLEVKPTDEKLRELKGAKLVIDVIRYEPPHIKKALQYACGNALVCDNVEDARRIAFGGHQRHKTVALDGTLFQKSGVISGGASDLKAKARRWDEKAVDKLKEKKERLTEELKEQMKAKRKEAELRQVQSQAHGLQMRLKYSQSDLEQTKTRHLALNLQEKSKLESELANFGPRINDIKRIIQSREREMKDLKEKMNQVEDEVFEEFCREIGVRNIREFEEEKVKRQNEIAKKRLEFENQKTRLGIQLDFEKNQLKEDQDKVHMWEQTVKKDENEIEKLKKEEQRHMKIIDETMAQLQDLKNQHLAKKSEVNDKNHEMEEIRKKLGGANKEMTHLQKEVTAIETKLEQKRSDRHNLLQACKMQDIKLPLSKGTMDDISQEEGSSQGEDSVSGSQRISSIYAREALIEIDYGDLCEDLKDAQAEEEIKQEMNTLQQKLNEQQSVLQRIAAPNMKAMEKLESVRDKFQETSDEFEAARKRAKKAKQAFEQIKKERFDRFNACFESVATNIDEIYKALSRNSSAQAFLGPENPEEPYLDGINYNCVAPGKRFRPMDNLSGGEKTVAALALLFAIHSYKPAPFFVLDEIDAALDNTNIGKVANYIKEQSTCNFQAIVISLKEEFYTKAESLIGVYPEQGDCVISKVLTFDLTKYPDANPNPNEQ

MDA-MB-468 [18] = experiment: Inhibition of autophagic flux in human MDA-MB-468 cells assessed as reduction in polyubiquitinated H2A expression measured after 48 hrs by Western blot analysis; type: functional, cell-based
MDA-MB-231 [19] = experiment: Induction of DNA damage in human MDA-MB-231 cells assessed as reduction in RAD51 expression measured after 6 to 48 hrs by Western blot analysis; type: functional, cell-based; conditions: dose 5-20 µM, time 6-48 hrs, DDE = dose-dependent effect

SMILES: O=C(NC1CCCCC1)c1[nH]cnc1-c1nc2ccccc2[nH]1
- Activity (MDA-MB-468 [1]): Dde
- IC50 (PANC-1): 19.2 µM
- Activity (MDA-MB-468 [2]): Dde
- Activity (MDA-MB-231 [3]): Active
- Activity (MDA-MB-468 [4]): Dde
- inhibition (MDA-MB-231 [5]): Active
- inhibition (HeLa): Active
- Activity (MDA-MB-468 [6]): Dde
- Activity (MDA-MB-231 [7]): Dde
- Activity (MDA-MB-231 [8]): Active
- Activity (MDA-MB-231 [9]): Active
- Activity (MDA-MB-468 [10]): Dde
- Activity (MDA-MB-468 [11]): Dde
- Activity (MDA-MB-231 [12]): Dde
- Activity (MDA-MB-231 [13]): Dde
- inhibition (MDA-MB-468 [14]): Dde
- Activity (MDA-MB-231 [15]): Active
- Activity (MDA-MB-468 [16]): Active
- IC50 (U-251): 12.9 µM
- Activity [17]: Active
- inhibition (MDA-MB-468 [18]): Active
- Activity (MDA-MB-231 [19]): Dde

From ChEMBL document CHEMBL5113482, “Discovery of fused benzimidazole-imidazole autophagic flux inhibitors for treatment of triple-negative breast cancer” (Eur J Med Chem, 2022)
